Data set [1] has as its system Rats with permanent left coronary artery occlusion. The data set is described as follows: Quantitative histologic analysis of scar circumference, scar thickness and expansion index (Example 2). Type of data set: in vivo, rat. Conditions: 6 weeks after treatment. Here is the method: (§1) Rats were anesthetized, ventilated, and a thoracotomy performed in the left 4th intercostal space. Temperature was maintained at 36° C. by placing the rats on a heating pad during the procedure. The pericardium was excised and the proximal left coronary artery isolated and permanently occluded with a suture. Coronary artery occlusion was confirmed by cyanosis and akinesis of the anterior wall of the ventricle. The chest was closed, air evacuated, and the rats allowed to recover. Analgesia was administered per the veterinarian. An echocardiogram was obtained at approximately 15 minutes post coronary artery occlusion. At 2 hours rats were randomized to receive chronic daily D-Arg-2′6′-Dmt-Lys-Phe-NH2 (delivered subcutaneously by an Alzet Osmotic Pump—3 mg/kg/day) or water. The Osmotic Pump delivered approximately 0.15 μl/hr for 6 weeks (model 2006; 200 μl). The Alzat pump was implanted subcutaneously between the shoulder blades while the rat was still anesthetized. After 6 weeks the rats were re-anesthetized, weighed, and a second echocardiogram was obtained under anesthesia. Cut downs were performed to isolate the carotid artery and jugular vein. Heart rate and blood pressure were measured. A Millar catheter was inserted into the left ventricle and LV systolic pressure, LV end diastolic pressure, +dP/dt, and −dP/dt were measured. A left ventriculogram was performed using IV fluoroscopic contrast in order to determine LV stroke volume and ejection fraction. Under deep anesthesia, the heart was excised, weighed, and pressure fixed at 11 mmHg with formalin. The lungs were also excised and weighed. Postmortem LV volume was measured by filling the LV cavity with fluid and measuring the total fluid. The hearts were sliced into four transverse sections and histologic slides were prepared and stained with hematoxylin and eosin and with picrosirius red, which stains collagen. Quantitative histologic analysis included: total circumference, scar circumference, non-infarcted wall circumference, total LV area, total LV cavity area, LV wall thickness (at several points), non-infarcted wall thickness; myocardial infarct expansion index.
(§2) All data is reported as means±SEM. Values between groups were compared by Student t-test. P is significant at p<0.05 level.

For data set [2], the system named is Rats with permanent coronary artery ligation. The data set is described as follows: Post-infarction remodeling in a rodent model of heart failure, LV chamber volume (Example 3). The class given is in vivo, rat. As to the method: Rats underwent the permanent coronary artery ligation, as described in Example 2. The rats were split into two groups and treated for six weeks with either 3 mg/kg/day of D-Arg-2′6′-Dmt-Lys-Phe-NH2 or 0.9% NaCl (saline) continuously through mini-osmotic pumps, which were implanted into each animal.
After the six week period, LV function was assessed with echocardiography. Additionally, the hearts were excised and the heart tissue analyzed for LV chamber volume using tetrazolium salt staining Heart tissue in the border zone and remote areas around the infarct were also harvested and underwent gene array analysis to determine the expression levels of genes involved in mitochondrial metabolism.

The test system of data set [3] is Rats with permanent left coronary artery occlusion. The experiment in a line: Survival during 6 weeks treatment after coronary occlusion (Example 2). Type of data set: in vivo, rat. The following applies: 6 weeks treatment after randomization at 2 hours post occlusion. Here is the method: (§3) Rats were anesthetized, ventilated, and a thoracotomy performed in the left 4th intercostal space. Temperature was maintained at 36° C. by placing the rats on a heating pad during the procedure. The pericardium was excised and the proximal left coronary artery isolated and permanently occluded with a suture. Coronary artery occlusion was confirmed by cyanosis and akinesis of the anterior wall of the ventricle. The chest was closed, air evacuated, and the rats allowed to recover. Analgesia was administered per the veterinarian. An echocardiogram was obtained at approximately 15 minutes post coronary artery occlusion. At 2 hours rats were randomized to receive chronic daily D-Arg-2′6′-Dmt-Lys-Phe-NH2 (delivered subcutaneously by an Alzet Osmotic Pump—3 mg/kg/day) or water. […] Heart rate and blood pressure were measured. A Millar catheter was inserted into the left ventricle and LV systolic pressure, LV end diastolic pressure, +dP/dt, and −dP/dt were measured. […] Postmortem LV volume was measured by filling the LV cavity with fluid and measuring the total fluid. […] Quantitative histologic analysis included: total circumference, scar circumference, non-infarcted wall circumference, total LV area, total LV cavity area, LV wall thickness (at several points), non-infarcted wall thickness; myocardial infarct expansion index. […]

The subject of the next data set is SERCA2a expression. The data set is described as follows: SERCA2a expression by qRT-PCR in heart samples post-myocardial infarction (Example 1). Type of data set: in vivo. Conditions: rat, 6 weeks, normalized to β-actin, relative to sham. As to the method: Rats were anesthetized, ventilated, and a thoracotomy performed in the left 4th intercostal space. Temperature was maintained at 36° C. by placing the rats on a heating pad during the procedure. The pericardium was excised and the proximal left coronary artery isolated and permanently occluded with a suture. Coronary artery occlusion was confirmed by cyanosis and akinesis of the anterior wall of the ventricle. The chest was closed, air evacuated, and the rats allowed to recover. Analgesia was administered per the veterinarian. An echocardiogram was obtained at approximately 15 minutes post coronary artery occlusion. At 2 hours rats were randomized to receive chronic daily D-Arg-2′6′-Dmt-Lys-Phe-NH2 (delivered subcutaneously by an Alzet Osmotic Pump—3 mg/kg/day, n=7), water (n=7), sham operation (normal non-infarct hearts, n=7). The Osmotic Pump delivered approximately 0.15 μl/hr for 6 weeks (model 2006; 200 μl). The Alzat pump was implanted subcutaneously between the shoulder blades while the rat was still anesthetized.
After 6 weeks, heart samples were collected from shams, border zone cells of water-treated infarcted hearts (MI/BZ) and D-Arg-2′6′-Dmt-Lys-Phe-NH2-treated hearts (MI/BZ+AP), and remote noninfarcted area cells of water-treated hearts (MI/R) and of D-Arg-2′6′-Dmt-Lys-Phe-NH2-treated hearts (MI/R+AP). […]

Data set [4] concerns Rats with permanent left coronary artery occlusion. The data set is described as follows: Heart weight and post-mortem LV volume (Example 2). Type of data set: in vivo, rat. Conditions: 6 weeks after treatment. As to the method:
as §1, with “The hearts were sliced into four transverse sections and histologic slides were prepared and stained with hematoxylin and eosin and with picrosirius red, which stains collagen.” left out, “index. […]” for “index.”

Data set [5] has the same test system. The data set is described as follows: Hemodynamics: heart rate, blood pressure and LV pressures by Millar catheter (Example 2). Type of data set: in vivo, rat. Conditions: 6 weeks after treatment. Here is the method:
as §1, §2

For data set [6] the test system is unchanged. The data set is described as follows: LV stroke volume and ejection fraction by LV ventriculography (Example 2). Conditions: 6 weeks after treatment, 3 mg/kg/day s.c. Type of data set: in vivo, rat. Here is the method: as §3
The test system is the same in data set [7]. The data set is described as follows: LV fractional shortening by echocardiography, permanent coronary occlusion (Example 2). Type of data set: in vivo, rat. Here is the method:
as §1, with “The hearts were sliced into four transverse sections and histologic slides were prepared and stained with hematoxylin and eosin and with picrosirius red, which stains collagen.” left out, “index. […]” for “index.”

Data set [8] deals with plasma membrane of several mammalian cell types. Conditions: energy-independent manner; cited from earlier work.

Regarding D-Arg-2′6′-Dmt-Lys-Phe-NH2, in data set [1], the “Scar circumference (%), expressed as percentage of total LV circumference” value turned out to be 39.7±2.2%; the Scar thickness came to 0.504 ± 0.039 mm; the Septum thickness came out at 1.45 ± 0.03 mm. In data set [1] (histological analysis), this substance gave an LV non-scar circumference of 15.4±0.4 mm and a scar circumference of 9.9±0.6 mm. Further, the Expansion index in data set [1] ([LV cavity area/Total LV area×Septum thickness/Scar thickness]) stood at 1.67 ± 0.12. Besides, the LV volume/heart weight entry in [2] (3 mg/kg/day for six weeks by mini-osmotic pump versus 0.9% NaCl, FIG. 6) is “decrease in LV volume/heart weight”. In addition, the LV dilation result in data set [2] (3 mg/kg/day for six weeks by mini-osmotic pump, post-infarction model of heart failure) is “reduced LV dilation”. Further, the deaths during treatment entry in [3] is “no rats died”. In the data set with SERCA2a expression (3 mg/kg/day s.c. osmotic pump from 2 hours post occlusion), the “SERCA2a expression, border zone cells (MI/BZ+AP)” value is “restored SERCA2a expression to near normal levels”. In addition, in the data set with SERCA2a expression (3 mg/kg/day s.c. osmotic pump), the “SERCA2a expression, nonischemic remote area (MI/R)” value is “no significant differences”. In data set [4] (3 mg/kg/day s.c.), the Heart weight was 0.724 ± 0.011 g. In addition, the “LV volume (post-mortem)” value in data set [4] (heart pressure fixed at 11 mmHg) was 0.519 ± 0.019 mL. The substance also returned an LV volume/heart weight in [4] (post-mortem LV volume standardized by heart weight) of 0.72±0.02. For the same substance, the “minimum left ventricular pressure” value in [5] is given as 0.64±0.55 mmHg. Further, in [5] (3 mg/kg/day s.c.), the “Diastolic BP” value is 85 ± 2 mmHg, the “Heart Rate” value was found to be 209 ± 5, the “Mean BP” value is listed as 94 ± 3 mmHg and the “Systolic BP” value was found to be 114 ± 4 mmHg. Also, in data set [5] (left ventricle), the “+dp/dt” value turned out to be 5668, the “Ped (end diastolic left ventricular pressure)” value came out at 5.63, the “Pes (end systolic left ventricular pressure)” value stood at 105 and the “Pmin (minimum left ventricular pressure)” value was 0.64 +. Moreover, in [5] (left ventricle), the “Tau Glantz” value is listed as 24.6, the “Tau Weiss” value is recorded as 14.6 and the “−dp/dt” value was 3639. Moreover, in data set [6], the LV ejection fraction is given as 55.3±1.4% and the LV stroke volume came to 0.257 ± 0.008 mL. Further, the “left ventricular fractional shortening (LVFS)” value in data set [7] (6 weeks after treatment, 3 mg/kg/day s.c. osmotic pump from 2 hours post occlusion) is on record as 28.8±1.7%. Further, the “left ventricular fractional shortening (LVFS)” value in data set [7] (15 minutes after coronary occlusion (before treatment)) stood at 45±1.8. Besides, the “left ventricular fractional shortening (LVFS)” value in data set [7] (baseline before coronary occlusion (before treatment)) worked out at 44.5±1.1%.

In the case of 2′,6′-Dmt-D-Arg-Phe-Lys-NH2, the plasma membrane penetration result in [8] is “readily penetrates the plasma membrane”.

These data come from patent publication US9877997B2, “Methods and compositions for regulating SRCA2A expression levels in myocardial infarction” (Stealth BioTherapeutics Corp., priority 2013, dated 2018).
